In the supplement of paper PMC10307832:

Legend:
Assay in all cases: relative viability (nuclei count vs DMSO), 5 days (fraction); higher = more cells survive
HOP-62 = system: HOP-62
In short: (§1)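 Relative viability was taken as the ratio of nuclei in treated wells to nuclei in vehicle wells. Lung cancer cell lines in 1536-well plates received compounds by pin tool one day after seeding, either one drug alone or a fixed anchor-drug dose plus five library-drug doses (not always all listed) in √10 steps. Nuclei were counted on 4× images after 5 days of treatment, and values are medians of duplicate plates.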

NCI-H1755 = system: NCI-H1755
In short: as §1

A-427 = system: A-427
In short: as §1

HCC-78 = system: HCC-78
In short: as §1

SW 900 = system: SW 900
In short: as §1

UMC-11 = system: UMC-11
In short: as §1

NCI-H1915 = system: NCI-H1915
In short: as §1

NCI-H1793 = system: NCI-H1793
In short: as §1

NCI-H1944 = system: NCI-H1944
In short: as §1

LC-2-ad = system: LC-2-ad
In short: as §1

HCC-366 = system: HCC-366
In short: as §1

NCI-H1792 = system: NCI-H1792
In short: as §1

SMILES: NC(=O)Nc1cc(-c2cccc(F)c2)sc1C(=O)N[C@H]1CCCNC1 [AZD7762] + Nc1nc2[nH]cc(CCc3ccc(C(=O)N[C@@H](CCC(=O)O)C(=O)O)cc3)c2c(=O)[nH]1 [Pemetrexed] (partner 0.2 µM)
- relative viability (HOP-62; first compound 0.1 µM): 0.264
- relative viability (HOP-62; first compound 0.3162 µM): 0.248
- relative viability (HOP-62; first compound 1 µM): 0.208
- relative viability (NCI-H1755; first compound 0.01 µM): 0.48
- relative viability (NCI-H1755; first compound 0.03162 µM): 0.441
- relative viability (NCI-H1755; first compound 0.1 µM): 0.401
- relative viability (NCI-H1755; first compound 0.3162 µM): 0.36
- relative viability (NCI-H1755; first compound 1 µM): 0.277
- relative viability (A-427; first compound 0.01 µM): 0.949
- relative viability (A-427; first compound 0.03162 µM): 0.94
- relative viability (A-427; first compound 0.1 µM): 1.11
- relative viability (A-427; first compound 0.3162 µM): 0.916
- relative viability (A-427; first compound 1 µM): 0.374
- relative viability (HCC-78; first compound 0.01 µM): 0.927
- relative viability (HCC-78; first compound 0.03162 µM): 0.903
- relative viability (HCC-78; first compound 0.1 µM): 0.895
- relative viability (HCC-78; first compound 0.3162 µM): 0.895
- relative viability (HCC-78; first compound 1 µM): 0.889
- relative viability (SW 900; first compound 0.01 µM): 0.533
- relative viability (SW 900; first compound 0.03162 µM): 0.459
- relative viability (SW 900; first compound 0.1 µM): 0.452
- relative viability (SW 900; first compound 0.3162 µM): 0.475
- relative viability (SW 900; first compound 1 µM): 0.374
- relative viability (UMC-11; first compound 0.01 µM): 0.833
- relative viability (UMC-11; first compound 0.03162 µM): 0.797
- relative viability (UMC-11; first compound 0.1 µM): 0.782
- relative viability (UMC-11; first compound 0.3162 µM): 0.495
- relative viability (UMC-11; first compound 1 µM): 0.369
- relative viability (NCI-H1915; first compound 0.01 µM): 0.434
- relative viability (NCI-H1915; first compound 0.03162 µM): 0.412
- relative viability (NCI-H1915; first compound 0.1 µM): 0.346
- relative viability (NCI-H1915; first compound 0.3162 µM): 0.264
- relative viability (NCI-H1915; first compound 1 µM): 0.217
- relative viability (NCI-H1793; first compound 0.01 µM): 0.983
- relative viability (NCI-H1793; first compound 0.03162 µM): 0.956
- relative viability (NCI-H1793; first compound 0.1 µM): 0.954
- relative viability (NCI-H1793; first compound 0.3162 µM): 0.811
- relative viability (NCI-H1793; first compound 1 µM): 0.562
- relative viability (NCI-H1944; first compound 0.01 µM): 0.694
- relative viability (NCI-H1944; first compound 0.03162 µM): 0.601
- relative viability (NCI-H1944; first compound 0.1 µM): 0.54
- relative viability (NCI-H1944; first compound 0.3162 µM): 0.28
- relative viability (NCI-H1944; first compound 1 µM): 0.188
- relative viability (LC-2-ad; first compound 0.01 µM): 0.3
- relative viability (LC-2-ad; first compound 0.03162 µM): 0.277
- relative viability (LC-2-ad; first compound 0.1 µM): 0.277
- relative viability (LC-2-ad; first compound 0.3162 µM): 0.229
- relative viability (LC-2-ad; first compound 1 µM): 0.241
- relative viability (HCC-366; first compound 0.01 µM): 0.195
- relative viability (HCC-366; first compound 0.03162 µM): 0.11
- relative viability (HCC-366; first compound 0.1 µM): 0.0981
- relative viability (HCC-366; first compound 0.3162 µM): 0.0668
- relative viability (HCC-366; first compound 1 µM): 0.0716
- relative viability (NCI-H1792; first compound 0.01 µM): 0.957
- relative viability (NCI-H1792; first compound 0.03162 µM): 0.822
- relative viability (NCI-H1792; first compound 0.1 µM): 0.844
- relative viability (NCI-H1792; first compound 0.3162 µM): 0.732
- relative viability (NCI-H1792; first compound 1 µM): 0.421
